Data taken from patent US11964935B2, “Gingerol derivative having inhibitory activity against biofilm formation and pharmaceutical composition comprising same as effective ingredient for preventing or treating biofilm-caused infection symptom” (Korea University Research and Business Foundation, Sejong …, priority 2017, dated 2024).
Entries after “also recorded” stand apart in the source; their conditions may differ.

How the values were obtained:
[1] = biological target: T1, LasR (Pseudomonas aeruginosa, UniProt P25084); assay: LasR reporter gene assay (E. coli reporter strain, luminescence, competition with OdDHL); assay type: cell-based; settings: compound 1 μM or 10 μM in the presence of 1 μM OdDHL (compound 1a)
T1 construct: expressed in transfected cells; host or cells: E. coli DH5α (printed DHSα) co-transformed with pJN105L and pSC11
Protocol: This assay was conducted by modifying a previously reported method. E. coli DHSα co-transformed with two plasmids, pJN105L (LasR expression plasmid) and pSC11 (lasI::lacZ fusion plasmid), was used as a bioassay reporter strain. Overnight culture of the reporter strain with 10 μg/mL gentamicin and 50 μg/mL ampicillin was diluted in the Luria-Bertani (LB) medium (1:100). Then, the reporter strain (optical density at 595 nm [OD595] was 0.3) mixed with either a positive control or the synthesized compound was incubated with OdDHL (Sigma-Aldrich, St. Louis, MO., USA) and 0.4% arabinose (Sigma-Aldrich). After incubation at 37° C. for 1.5 h, OD595 was measured on a VICTOR ×5 multimode plate reader (PerkinElmer, Waltham, Mass., USA). The β-galactosidase activity was determined using a Tropix plus kit (Applied Biosystems, USA), and luminescence was measured on the VICTOR ×5 multimode plate reader. RLU ratio was quantified by dividing luminescence with OD595.
LasR-binding affinity of the synthesized gingerols (compounds 4-10) with various alkyl chain lengths was determined by measuring luminescence of an E. coli reporter strain. The reporter strain carried two plasmids, pJN105L (LasR expression plasmid) (Lee, J. H.; Lequette, Y.; Greenberg, E. P. Activity of purified QscR, a Pseudomonas aeruginosa orphan quorum-sensing transcription factor. Mol. Microbiol. 2006, 59, 602609.) and pSC11 (las1::lacZ fusion plasmid) (Chugani, S. A.; Whiteley, M.; Lee, K. M.; D'Argenio, D.; Manoil, C.; Greenberg, E. P. QscR, a modulator of quorum-sensing signal synthesis and virulence in Pseudomonas aeruginosa. Proc. Natl. Acad. Sci. U.S.A. 2001, 98, 27522757.), which enabled assay of competitive binding of OdDHL with each gingerol derivative 4-10. Antagonistic activities of the synthesized compounds at 1 μM or 10 μM were determined by measuring luminescence in the presence of 1 μM OdDHL (compound 1a) and presented as relative luminescence unit (RLU) ratio. Three compounds (compounds 1b, 1c, and 1d) served as positive controls. […] Just as the LasR inhibition, inhibition of biofilm formation also strengthened as the carbon chain was extended at 10 μM ((B) of FIG. 3). However, inhibition of biofilm formation decreased with 9-gingerol (compound 9) and 10-gingerol (compound 10) at 100 μM ((C) of FIG. 3) because of increased bacterial growth inhibition. […] This effect may be due to the fact that compounds 9 and 10 act as a surfactant, which inhibits bacterial growth. Agonistic activities of compounds 4-10 in an E. coli reporter assay system in the absence of OdDHL were next examined.

[2] = test system: P. aeruginosa PA14; assay: Dynamic biofilm formation assay (drip-flow reactor, CLSM); assay type: cell-based, Pseudomonas aeruginosa; settings: 48 h drip-flow reactor
Protocol: Glass slides were dipped into a Petri dish containing 2 mL of a P. aeruginosa PA14 suspension (OD595=1.0) and 18 mL of the AB medium, followed by incubation at 37° C. for 24 h to let the cells adhere to the slides. The slides were then inserted into a drip-flow reactor (DFR-110, BioSurface, Mont., USA). The AB medium with either a positive control or the synthesized compound (0-10 μM) was fed into the reactor continuously via a peristaltic pump (Masterflex C/L tubing pumps, Cole-Parmer, IL, USA) at 0.3 mL/min After operation of the reactor at 37° C. for 48 h, the cells on the slides were washed two times with PBS. The biofilm cells were stained with fluorescein isothiocyanate-labeled type IV ConA (Sigma-Aldrich) and SYPRO Ruby (Ruby, Invitrogen, Carlsbad, CA, USA) for 15 min, respectively. CLSM images were captured via a 20× objective lens (W N-Achroplan 20×/0.5 W [DIC] M27) with green fluorescence (ConA, excitation wavelength of 490 nm, emission wavelength of 525 nm) and red fluorescence (Ruby, excitation wavelength of 470 nm, emission wavelength of 618 nm) and were analyzed in the Zen 2011 software (Carl Zeiss, Jena, Germany). For quantification, biofilm volume (μm^3/μm^2) and average thickness (μm) were measured by means of Comstat2 in ImageJ.
A dynamic biofilm formation assay of compounds 41 and 42 was performed in a drip-flow reactor. Compound 1c served as a positive control, and DMSO served as a negative control. After 48 h drip-flow reactor operation, the biofilm was stained with Ruby and concanavalin A (ConA). Ruby (red) is a reagent for staining protein, and ConA (green) is for carbohydrate of biofilm. As shown in (A) of FIG. 8, the biofilm in the presence of DMSO formed with typical mushroom-like morphology. […] Biofilm volume and thickness with compound 41 were the lowest among the three groups (Table 1).

[3] = test system: P. aeruginosa PA14; assay: Static biofilm formation assay; assay type: cell-based, Pseudomonas aeruginosa; settings: 10 μM, 24 h, static
Protocol: Overnight culture of P. aeruginosa PA14 (OD595=1.0) was diluted (1:20) with the AB medium (300 mM NaCl, 50 mM MgSO4, 0.2% vitamin-free casamino acids, 10 mM potassium phosphate, 1 mM L-arginine, and 1% glucose, pH 7.5) (1:20) containing with either positive controls or synthesized compounds (0-100 μM). The dilutions were aliquoted into borosilicate bottles, and the bottles were incubated at 37° C. for 24 h without agitation. After that, OD595 of the cell suspension was measured on the VICTOR ×5 multimode plate reader. The biofilm cells attached to the bottle were washed two times with phosphate buffered saline (PBS; 137 mM NaCl, 2.7 mM KCl, 10 mM Na2HPO4, and 2 mM KH2PO4, pH 7.2) and stained with 0.1% crystal violet for […] Next, the stained biofilm cells were eluted with 100% ethyl alcohol, and OD540 was measured on the VICTOR ×5 multimode plate reader. The biofilm formation was quantified by dividing OD540 with OD595.

T1 sequence (P25084 whole entry): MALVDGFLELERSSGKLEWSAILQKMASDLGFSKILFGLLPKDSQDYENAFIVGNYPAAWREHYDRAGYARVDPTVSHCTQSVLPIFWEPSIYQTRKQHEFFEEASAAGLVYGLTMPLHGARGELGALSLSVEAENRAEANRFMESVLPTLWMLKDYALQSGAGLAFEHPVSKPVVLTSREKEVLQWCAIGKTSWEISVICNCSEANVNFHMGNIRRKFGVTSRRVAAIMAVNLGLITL

Structure (SMILES) | LasR-antagonistic activity / LasR-binding affinity (RLU ratio), in words [1] | Inhibition of biofilm formation, in words [3] | other results
CCCCCC(O)CC(=O)CCc1ccc(O)c(OC)c1 (racemic) [Compound 6, 5-Hydroxy-1-(4-hydroxy-3-methoxyphenyl)decan-3-one] | slightly more potent |  | 
CCCCCCCC(O)CC(=O)CCc1ccc(O)c(OC)c1 (racemic) [Compound 8, 5-Hydroxy-1-(4-hydroxy-3-methoxyphenyl)dodecan-3-one] | slightly more potent |  | 
CCCCCCCC(O)CC(=O)/C=C/c1ccc(O)c(OC)c1 (racemic) [Compound 21b, (E)-5-Hydroxy-1-(4-hydroxy-3-methoxyphenyl)dodec-1-en-3-one] | slightly stronger LasR affinity; also recorded: more potent than compound 1c |  | 
CCCCCCCC(O)CC(=O)CCc1ccc(O)c(OC)c1 [Compound 1c, (S)-8-gingerol, reference compound] |  |  | Biofilm thickness ([2]; 10 μM compound, CLSM, Comstat2): 17.0 ± 0.4 μm; Biofilm volume ([2]; 10 μM compound, CLSM, Comstat2): 17.0 ± 0.4 μm^3/μm^2; Biofilm formation in CLSM images, in words ([2]; 10 μM, compared with DMSO or compound 1c): relatively thin and sparse
CCCCCC(O)CC(=O)CCc1ccccc1 (centres unmarked) [Compound 15a, 5-Hydroxy-1-phenyldecan-3-one] | significantly decreased the LasR-antagonistic activity |  | 
CCCCCCCC(O)CC(=O)CCc1ccccc1 (centres unmarked) [Compound 15b, 5-Hydroxy-1-phenyldodecan-3-one] | relatively weaker than those of the other compounds |  | 
CCCCCC(O)CC(=O)CCc1ccc(F)c(OC)c1 (centres unmarked) [Compound 16a, 1-(4-Fluoro-3-methoxyphenyl)-5-hydroxydecan-3-one] | preserved the LasR-inhibitory activity | the most potent in the series | 
CCCCCCCC(O)CC(=O)CCc1ccc(F)c(OC)c1 (centres unmarked) [Compound 16b, 1-(4-Fluoro-3-methoxyphenyl)-5-hydroxydodecan-3-one] |  | the most potent in the series; also recorded: stronger inhibition of biofilm formation than the known anti-biofilm agent (S)-6-gingerol | 
CCCCCC(O)CC(=O)CCc1ccc(F)cc1 (centres unmarked) [Compound 17a, 1-(4-Fluorophenyl)-5-hydroxydecan-3-one] | preserved the LasR-inhibitory activity | the most potent in the series | 
CCCCCCCC(O)CC(=O)CCc1ccc(F)cc1 (centres unmarked) [Compound 17b, 1-(4-Fluorophenyl)-5-hydroxydodecan-3-one] | the most potent among the synthesized compounds | the most potent in the series; also recorded: stronger inhibition of biofilm formation than the known anti-biofilm agent (S)-6-gingerol | 
CCCCCC(O)CC(=O)CCc1ccc(O)cc1 (centres unmarked) [Compound 18a, 5-Hydroxy-1-(4-hydroxyphenyl)decan-3-one] | increased the LasR-antagonistic activity | the most potent in the series | 
CCCCCCCC(O)CC(=O)CCc1ccc(O)cc1 (centres unmarked) [Compound 18b, 5-Hydroxy-1-(4-hydroxyphenyl)dodecan-3-one] | the most potent among the synthesized compounds | the most potent in the series; also recorded: stronger inhibition of biofilm formation than the known anti-biofilm agent (S)-6-gingerol | 
CCCCCC(O)CC(=O)CCc1cccc(OC)c1 (centres unmarked) [Compound 20a, 5-Hydroxy-1-(3-methoxyphenyl)decan-3-one] | decreased the LasR-antagonistic activity |  | 
CCCCCCCC(O)CC(=O)CCc1cccc(OC)c1 (centres unmarked) [Compound 20b, 5-Hydroxy-1-(3-methoxyphenyl)dodecan-3-one] | relatively weaker than those of the other compounds |  | 
CCCCCC(O)CC(=O)/C=C/c1ccc(O)c(OC)c1 (centres unmarked) [Compound 21a, (E)-5-Hydroxy-1-(4-hydroxy-3-methoxyphenyl)dec-1-en-3-one] | slightly stronger LasR affinity |  | 
CCCCCCCC(=O)/C=C/c1ccc(O)c(OC)c1 [Compound 23a, (E)-1-(4-Hydroxy-3-methoxyphenyl)dec-1-en-3-one] | significantly weaker LasR-binding affinity | less inhibition of biofilm formation | 
CCCCCCCCCC(=O)/C=C/c1ccc(O)c(OC)c1 [Compound 23b, (E)-1-(4-Hydroxy-3-methoxyphenyl)dodec-1-en-3-one] | significantly weaker LasR-binding affinity | less inhibition of biofilm formation | 
CCCCCCCC(=O)CCc1ccc(O)c(OC)c1 [Compound 24a, 1-(4-Hydroxy-3-methoxyphenyl)decan-3-one] | significantly weaker LasR-binding affinity | less inhibition of biofilm formation | 
CCCCCCCCCC(=O)CCc1ccc(O)c(OC)c1 [Compound 24b, 1-(4-Hydroxy-3-methoxyphenyl)dodecan-3-one] | significantly weaker LasR-binding affinity | less inhibition of biofilm formation | 
CCCCCCC[C@@H](O)CC(=O)CCc1ccc(O)c(OC)c1 [Compound 29, (R)-5-Hydroxy-1-(4-hydroxy-3-methoxyphenyl)dodecan-3-one] | intermediate LasR-affinity between compound 8 and compound 42 |  | 
CCCCCCCC(O)CC(=O)CCc1ccc(O)c(OC)c1 [Compound 42S, (S)-8-gingerol] | almost the same as that of commercial (S)-8-gingerol |  | 
